14 molecules from PubChem BioAssay (NCI) can be followed below.

Some test systems named below: A498 renal; ACHN renal; BT-549 breast; EKVX NSCLC; HT29 colon; M14 melanoma; MDA-MB-231 breast; SF-268 CNS; SF-295 CNS; SNB-75 CNS; T-47D breast; MDA-N.
Holding throughout (test): growth of human tumour cells (NCI), 48 h

SMILES strings stand for the structures.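 Exposure lasted 48 hours, with cells grown in 96-well plates and compounds tested at five concentrations. Definition used: TGI = concentration required for complete inhibition of growth.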

As for `COc1cc2nc(-c3cccs3)nc(N3C(c4cc(OC)c(OC)c(OC)c4)=NNC(=O)c4ccccc43)c2cc1OC`, the TGI in the assay on A498 renal was above 100 µM; in the assay on ACHN renal, above 100 µM; with BT-549 breast it was 39.6 µM; with EKVX NSCLC it was 73.5 µM; in the assay on HT29 colon, above 100 µM; with M14 melanoma, above 100 µM. The TGI was 40.6 µM in the assay on MDA-MB-231 breast; above 100 µM in the assay with SF-268 CNS; 42.6 µM with SF-295 CNS; 54.2 µM in the assay on SNB-75 CNS; above 100 µM in the assay on T-47D breast.
For `COc1ccc(/C=C2\OC(=O)C(Cl)=C2c2ccc(OC)c(Cl)c2)cc1`, the TGI in the assay on A498 renal is 39.1 µM; in the assay on ACHN renal it was above 100 µM; with EKVX NSCLC it was 51.8 µM; in the assay with HT29 colon, above 100 µM; in the assay with M14 melanoma it was 76.9 µM; in the assay on MDA-N, 47.1 µM. Also, the TGI was 44.3 µM with SF-268 CNS, 67.6 µM in the assay with SF-295 CNS, 63.4 µM in the assay with SNB-75 CNS and above 100 µM in the assay with T-47D breast.
Consider `Cc1ccc(C(=O)N/N=C(\N=Nc2ccccc2C(=O)O)c2ccc(N(C)C)cc2)cc1`, for which the TGI was above 100 µM with BT-549 breast; above 100 µM with EKVX NSCLC; above 100 µM in the assay on HT29 colon; above 100 µM in the assay on M14 melanoma; above 100 µM with MDA-MB-231 breast; 57.7 µM in the assay on MDA-N. Besides, the TGI in the assay with SF-268 CNS and in the assay with SF-295 CNS was above 100 µM in each case.
Regarding `CC(C)N1[C@@H]2CCCC[C@H]2N(C(C)C)[P+]1=O`, the TGI with A498 renal, in the assay with ACHN renal, with EKVX NSCLC, in the assay with HT29 colon, in the assay with M14 melanoma and in the assay on MDA-N was above 100 µM in each case. Besides, the TGI in the assay on SF-268 CNS, in the assay on SF-295 CNS, in the assay with SNB-75 CNS and in the assay with T-47D breast was above 100 µM throughout.
On to `O=[N+]([O-])c1ccc(Nc2cccc3c2[nH]c2c(-c4ccccc4)nccc23)c([N+](=O)[O-])c1`, for which the TGI in the assay with A498 renal, in the assay on EKVX NSCLC, with HT29 colon, in the assay on SF-268 CNS, in the assay on SF-295 CNS and in the assay on SNB-75 CNS was above 100 µM each time.
Regarding `Cc1ccc(S(=O)(=O)N/N=C\c2c3ccccc3[n+](C)c3ccccc23)cc1`, the TGI was above 100 µM in the assay with A498 renal; above 100 µM in the assay with ACHN renal; above 100 µM in the assay on EKVX NSCLC; 62.6 µM in the assay with HT29 colon; 97.9 µM with M14 melanoma; above 100 µM in the assay on SF-268 CNS. Moreover, the TGI in the assay on SF-295 CNS was 30.3 µM; in the assay with SNB-75 CNS, 46 µM.
As to `COc1cc(-c2nc(SC)nc3c2CCc2ccccc2-3)cc(OC)c1OC`, the TGI in the assay on A498 renal is above 100 µM; with ACHN renal, above 100 µM; in the assay with BT-549 breast, above 100 µM; in the assay with EKVX NSCLC, 92.8 µM; with HT29 colon, above 100 µM; in the assay with M14 melanoma, above 100 µM. In addition, the TGI in the assay with MDA-MB-231 breast, with SF-268 CNS, in the assay on SF-295 CNS, in the assay on SNB-75 CNS and in the assay on T-47D breast was above 100 µM throughout.
As for `COc1ccc(/C=C(/c2ccc(OC)cc2)c2c(Cl)cc(Cl)c(/C(=C\c3ccc(OC)cc3)c3ccc(OC)cc3)c2N=Nc2ccccc2)cc1`, the TGI in the assay on A498 renal, with ACHN renal, in the assay with BT-549 breast, in the assay with EKVX NSCLC, with HT29 colon and in the assay with M14 melanoma was above 100 µM each time. Moreover, the TGI in the assay on MDA-MB-231 breast, in the assay on SF-268 CNS, in the assay on SF-295 CNS, in the assay with SNB-75 CNS and in the assay with T-47D breast was above 100 µM in each case.
As to `CCOC(=O)Cc1cc(=O)[nH]c(-n2[nH]c(C)c(CCO)c2=O)n1`, the TGI with A498 renal, in the assay on ACHN renal, in the assay with EKVX NSCLC, with HT29 colon, in the assay with M14 melanoma and with MDA-MB-231 breast was above 100 µM in each case. Besides, the TGI in the assay with MDA-N, in the assay on SF-268 CNS, in the assay with SF-295 CNS and in the assay on T-47D breast was above 100 µM throughout.
Turning to `O=S(=O)(O)c1cc(N=[N+]([O-])c2ccc(N=Nc3ccccc3)cc2S(=O)(=O)O)ccc1/C=C/c1ccc(N=[N+]([O-])c2ccc(N=Nc3ccccc3)cc2S(=O)(=O)O)cc1S(=O)(=O)O`, the TGI in the assay on A498 renal, in the assay on EKVX NSCLC, in the assay on HT29 colon, with SF-268 CNS, with SF-295 CNS and in the assay on SNB-75 CNS was above 100 µM each time.
For the molecule `Cn1c(-c2c(C3=CC(=O)N(c4ccccc4)C3=O)c3ccccc3n2C)cc2ccccc21`, the TGI in the assay with ACHN renal, in the assay with EKVX NSCLC, in the assay with HT29 colon, with M14 melanoma, with MDA-MB-231 breast and in the assay on MDA-N was above 100 µM throughout. Further, the TGI in the assay with SF-295 CNS, with SNB-75 CNS and with T-47D breast was above 100 µM throughout.
For the molecule `COC(=N)CCCl`, the TGI in the assay on ACHN renal, in the assay on BT-549 breast, with EKVX NSCLC, in the assay on HT29 colon, with M14 melanoma and in the assay with MDA-N was above 100 µM each time. The TGI in the assay on SF-268 CNS, with SF-295 CNS and in the assay on SNB-75 CNS was above 100 µM throughout.
On to `COc1cccc(N(CN2C(=O)CCC2OC)C(C)=O)c1` (stereo not given), for which the TGI in the assay with A498 renal, in the assay with ACHN renal, in the assay with HT29 colon, in the assay on M14 melanoma, in the assay with MDA-MB-231 breast and in the assay with MDA-N was above 100 µM throughout. The TGI in the assay on SF-268 CNS, in the assay with SF-295 CNS, in the assay with SNB-75 CNS and in the assay with T-47D breast was above 100 µM each time.
For the molecule `Cc1ccc([N+]2=NC(c3ccccc3)=NN(c3ccccc3)C2)cc1`, the TGI with A498 renal, with ACHN renal, in the assay on EKVX NSCLC, in the assay with HT29 colon, with SF-268 CNS and in the assay with SF-295 CNS was above 100 µM in each case.
